In US10405548B2, “Fungicidal compositions” (Syngenta Crop Protection, LLC, priority 2004, dated 2019):
Several values for one entry are separate records, joined by “and”; a condition that tells them apart may be missing. Equal values may be shown once. Read-outs that look alike come from different tables or passages of the source.

What was measured:
Type in all cases: cell-based
Fusarium graminearum = system: Fusarium graminearum
Pyrenophora graminea = assay: Fungal growth assay, Control of Pyrenophora graminea (PDB, 96-well, 24° C., photometric, 72 hrs)
Microdochium nivale = assay: Fungal growth assay, Control of Microdochium nivale (PDB, 96-well, 24° C., photometric, 72 hrs)
Septoria tritici = assay: Fungal growth assay, Control of Septoria tritici (PDB, 96-well, 24° C., photometric, 72 hrs)
Ustilago nuda = assay: Fungal growth assay, Control of Ustilago nuda (PDB, 96-well, 24° C., photometric, 48 hrs)
Rhizoctonia solani = assay: Fungal growth assay, Control of Rhizoctonia solani (PDB, 96-well, 24° C., photometric, 48 hrs)
Gäumannomyces graminis = assay: Fungal growth assay, Control of Gaumannomyces graminis (PDB, 96-well, 24° C., photometric, 72 hrs)

SMILES: CC(C1CC1)C(O)(Cn1cncn1)c1ccc(Cl)cc1 (centres unmarked) [Cyproconazole, reference compound]
- Observed control in % (% Cobs) (Fusarium graminearum; 0.002 ppm): 5%
- Observed control in % (% Cobs) (Fusarium graminearum; 0.022 ppm): 1%
- Observed control in % (% Cobs) (Fusarium graminearum; 0.2 ppm): 0%
- Observed control in % (% Cobs) (Pyrenophora graminea; 0.022 ppm): 4%
- Observed control in % (% Cobs) (Pyrenophora graminea; 0.2 ppm): 19%
- Observed control in % (% Cobs) (Pyrenophora graminea; 0.6 ppm): 28%
- Observed control in % (% Cobs) (Microdochium nivale; 0.2 ppm): 0%
- Observed control in % (% Cobs) (Microdochium nivale; 0.6 ppm): 0%
- Observed control in % (% Cobs) (Microdochium nivale; 1.8 ppm): 9%

SMILES: N#Cc1c[nH]cc1-c1cccc2c1OC(F)(F)O2 [Fludioxonil, reference compound]
- Observed control in % (% Cobs) (Septoria tritici; 0.002 ppm): 0%
- Observed control in % (% Cobs) (Septoria tritici; 0.067 ppm): 9%
- Observed control in % (% Cobs) (Ustilago nuda; 0.002 ppm): 0%
- Observed control in % (% Cobs) (Ustilago nuda; 0.007 ppm): 0%
- Observed control in % (% Cobs) (Ustilago nuda; 0.022 ppm): 21%
- Observed control in % (% Cobs) (Rhizoctonia solani; 0.002 ppm): 0%
- Observed control in % (% Cobs) (Rhizoctonia solani; 0.007 ppm): 6%
- Observed control in % (% Cobs) (Rhizoctonia solani; 0.022 ppm): 0%
- Observed control in % (% Cobs) (Rhizoctonia solani; 0.067 ppm): 0%
- Observed control in % (% Cobs) (Fusarium graminearum; 0.007 ppm): 1%
- Observed control in % (% Cobs) (Fusarium graminearum; 0.022 ppm): 6%
- Observed control in % (% Cobs) (Fusarium graminearum; 0.067 ppm): 39%
- Observed control in % (% Cobs) (Pyrenophora graminea; 0.002 ppm): 7%
- Observed control in % (% Cobs) (Microdochium nivale; 0.002 ppm): 0%
- Observed control in % (% Cobs) (Microdochium nivale; 0.007 ppm): 0%
- Observed control in % (% Cobs) (Microdochium nivale; 0.022 ppm): 0%
- Observed control in % (% Cobs) (Microdochium nivale; 0.067 ppm): 3%

SMILES: CC1COC(Cn2cncn2)(c2ccc(Oc3ccc(Cl)cc3)cc2Cl)O1 (centres unmarked) [Difenoconazole, reference compound]
- Observed control in % (% Cobs) (Ustilago nuda; 0.002 ppm): 2%
- Observed control in % (% Cobs) (Pyrenophora graminea; 0.007 ppm): 0%
- Observed control in % (% Cobs) (Pyrenophora graminea; 0.022 ppm): 15%
- Observed control in % (% Cobs) (Pyrenophora graminea; 0.067 ppm): 23%
- Observed control in % (% Cobs) (Pyrenophora graminea; 0.2 ppm): 51%
- Observed control in % (% Cobs) (Microdochium nivale; 0.007 ppm): 4%
- Observed control in % (% Cobs) (Microdochium nivale; 0.2 ppm): 1%
- Observed control in % (% Cobs) (Microdochium nivale; 0.6 ppm): 13%

SMILES: CO/C=C(/C(=O)OC)c1ccccc1Oc1cc(Oc2ccccc2C#N)ncn1 [Azoxystrobin, reference compound]
- Observed control in % (% Cobs) (Gäumannomyces graminis; 0.002 ppm): 11%

SMILES: Cn1cc(C(=O)Nc2ccccc2[C@@H]2C[C@H]2C2CC2)c(C(F)F)n1 (racemic) [Racemic cpd Ia]
- Observed control in % (% Cobs) (Septoria tritici; 0.0001 ppm): 0%
- Observed control in % (% Cobs) (Septoria tritici; 0.0003 ppm): 2% and 1%
- Observed control in % (% Cobs) (Septoria tritici; 0.007 ppm): 0%
- Observed control in % (% Cobs) (Septoria tritici; 0.0074 ppm): 0%
- Observed control in % (% Cobs) (Septoria tritici; 0.022 ppm): 0%
- Observed control in % (% Cobs) (Septoria tritici; 0.067 ppm): 4%
- Observed control in % (% Cobs) (Ustilago nuda; 0.0001 ppm): 5%
- Observed control in % (% Cobs) (Ustilago nuda; 0.0003 ppm): 0%
- Observed control in % (% Cobs) (Ustilago nuda; 0.002 ppm): 0%
- Observed control in % (% Cobs) (Ustilago nuda; 0.007 ppm): 15%
- Observed control in % (% Cobs) (Rhizoctonia solani; 0.0001 ppm): 3%
- Observed control in % (% Cobs) (Rhizoctonia solani; 0.0008 ppm): 8%
- Observed control in % (% Cobs) (Rhizoctonia solani; 0.0025 ppm): 4%
- Observed control in % (% Cobs) (Rhizoctonia solani; 0.007 ppm): 4%
- Observed control in % (% Cobs) (Rhizoctonia solani; 0.0074 ppm): 0%
- Observed control in % (% Cobs) (Fusarium graminearum; 0.0001 ppm): 0%
- Observed control in % (% Cobs) (Fusarium graminearum; 0.0008 ppm): 0%
- Observed control in % (% Cobs) (Fusarium graminearum; 0.007 ppm): 0%
- Observed control in % (% Cobs) (Fusarium graminearum; 0.0074 ppm): 0%
- Observed control in % (% Cobs) (Fusarium graminearum; 0.022 ppm): 0%
- Observed control in % (% Cobs) (Fusarium graminearum; 0.0667 ppm): 7%
- Observed control in % (% Cobs) (Fusarium graminearum; 0.067 ppm): 4% and 10%
- Observed control in % (% Cobs) (Fusarium graminearum; 0.2 ppm): 7%
- Observed control in % (% Cobs) (Fusarium graminearum; 0.6 ppm): 12%
- Observed control in % (% Cobs) (Fusarium graminearum; 1.8 ppm): 18%
- Observed control in % (% Cobs) (Gäumannomyces graminis; 0.0003 ppm): 0%
- Observed control in % (% Cobs) (Gäumannomyces graminis; 0.0008 ppm): 0%
- Observed control in % (% Cobs) (Gäumannomyces graminis; 0.002 ppm): 2%
- Observed control in % (% Cobs) (Gäumannomyces graminis; 0.007 ppm): 0%
- Observed control in % (% Cobs) (Gäumannomyces graminis; 0.2 ppm): 0%
- Observed control in % (% Cobs) (Pyrenophora graminea; 0.0003 ppm): 1%
- Observed control in % (% Cobs) (Pyrenophora graminea; 0.0008 ppm): 6%
- Observed control in % (% Cobs) (Pyrenophora graminea; 0.002 ppm): 0%
- Observed control in % (% Cobs) (Pyrenophora graminea; 0.0074 ppm): 4%
- Observed control in % (% Cobs) (Pyrenophora graminea; 0.022 ppm): 0%
- Observed control in % (% Cobs) (Pyrenophora graminea; 0.0667 ppm): 20%
- Observed control in % (% Cobs) (Pyrenophora graminea; 0.067 ppm): 1%
- Observed control in % (% Cobs) (Pyrenophora graminea; 1.8 ppm): 11% and 1% and 6%
- Observed control in % (% Cobs) (Microdochium nivale; 0.0003 ppm): 0%
- Observed control in % (% Cobs) (Microdochium nivale; 0.0008 ppm): 0%
- Observed control in % (% Cobs) (Microdochium nivale; 0.002 ppm): 0%
- Observed control in % (% Cobs) (Microdochium nivale; 0.0025 ppm): 1% and 0%
- Observed control in % (% Cobs) (Microdochium nivale; 0.007 ppm): 2%
- Observed control in % (% Cobs) (Microdochium nivale; 0.0074 ppm): 0%
- Observed control in % (% Cobs) (Microdochium nivale; 0.067 ppm): 0% and 4% and 2%

SMILES: c1ccc2[nH]c(-c3cscn3)nc2c1 [Thiabendazole, reference compound]
- Observed control in % (% Cobs) (Septoria tritici; 0.0223 ppm): 0%
- Observed control in % (% Cobs) (Septoria tritici; 0.067 ppm): 0%
- Observed control in % (% Cobs) (Septoria tritici; 0.6 ppm): 3%
- Observed control in % (% Cobs) (Septoria tritici; 1.8 ppm): 1%
- Observed control in % (% Cobs) (Rhizoctonia solani; 0.0074 ppm): 0%
- Observed control in % (% Cobs) (Rhizoctonia solani; 0.023 ppm): 7%
- Observed control in % (% Cobs) (Rhizoctonia solani; 0.2 ppm): 12%
- Observed control in % (% Cobs) (Rhizoctonia solani; 0.6 ppm): 13%
- Observed control in % (% Cobs) (Fusarium graminearum; 0.0025 ppm): 1%
- Observed control in % (% Cobs) (Fusarium graminearum; 0.0223 ppm): 0%
- Observed control in % (% Cobs) (Pyrenophora graminea; 0.0025 ppm): 0%
- Observed control in % (% Cobs) (Pyrenophora graminea; 0.0223 ppm): 0%
